Several values for one entry are separate records, joined by “and”; a condition that tells them apart may be missing. Equal entries are not always repeated.
Legend:
Type in all cases: cell-based, human
[1] = test system: platelets in platelet-rich plasma (PRP); assay: Light transmission aggregometry, platelet aggregation induced by collagen
Protocol: (§1) Whole blood was collected into 0.105 M buffered sodium citrate as the anticoagulant. Platelet-rich plasma (PRP) was prepared by centrifugation of whole blood at 135×g for 20 min. The residual blood sample was then centrifuged at 2,500×g for 15 min to obtain platelet-poor plasma (PPP). Platelet counts in the PRP were determined using a Horiba Micros 60 cell counter. For LTA experiments, platelet counts in PRP were adjusted to 250,000/μL using autologous donor PPP as the diluent.
Twenty five (25) jμL of the stock solution of collagen (1 mg/ml) was added to 475 μL of collagen dilution buffer to obtain a 50 μg/ml working solution. Fifty (50) μL of collagen solution was added to 450 μL of adjusted PRP to perform aggregation tests. The final concentration of collagen used for aggregation testing was 5 μg/ml.
(§2) The samples were incubated in a water bath at 37° C. for 30 min before performing the LTA experiments. […]
(§3) After incubation of PRP with test articles, 450 μL of PRP were transferred into aggregation cuvettes for LTA testing. All aggregation experiments were performed on a LTA-Chronolog 700 aggregometer with Aggrolink 8 software. The instrument was set for an optical mode of data acquisition and the stir bar speed was set to 1.200 rpm. Autologous PPP was used in the reference channel of the aggregometer and baselines were set prior to addition of agonists. Fifty (50) μL of working agonist solutions (AA, ADP, and Collagen) were added to the cuvettes and tracings recorded for a minimum of 6 minutes. The maximal aggregation (MA) response was calculated using Aggrolink software for reporting the data.

[2] = test system: platelets in platelet-rich plasma (PRP); assay: Light transmission aggregometry, platelet aggregation induced by arachidonic acid
Protocol: as §1, with “All the experiments were conducted using healthy adult volunteers not taking aspirin or other medications that affect platelet aggregation. Whole” for “Whole”
The stock vial (16 mM) of AA was diluted by adding 0.5 mL of deionized water to obtain a 1.6 mM AA solution. The AA solution was maintained on ice and was used within 6 hr of preparation.
The samples were incubated in a water bath at 37° C. for 30 min before performing the LTA experiments.
The adjusted PRP was incubated with indicated concentration of GoPE (Table 7) for 30 min at 37° C.
as §3

[3] = test system: platelets in platelet-rich plasma (PRP); assay: Light transmission aggregometry, platelet aggregation induced by adenosine diphosphate; conditions: for inhibition of platelet aggregation in the presence of 5 or 20 μM ADP: at any of the concentrations tested
Protocol: as §1, with “All the experiments were conducted using healthy adult volunteers not taking aspirin or other medications that affect platelet aggregation. Whole” for “Whole”
Stock solutions of ADP (200 μM) were prepared in saline and stored frozen at −80° C. A vial of stock ADP was thawed and further diluted in saline to obtain a 50 μM ADP solution. Fifty (50) μL of ADP solution (200 and 50 μM) were added to 450 μL of adjusted PRP to perform aggregation tests with 20 μM ADP and 5 μM ADP.
as §2, §3

[4] = 6-paradol 1 μM, individual donor
[5] = 6-paradol 10 μM, individual donor
[6] = 6-paradol 100 μM, individual donor
[7] = 6-paradol 1000 μM, individual donor
[8] = substance at 10 μM and higher (6-paradol: in most experiments)
[9] = substance at a concentration of 1 μM
[10] = Aspirin 10 μM, individual donor
[11] = Aspirin 100 μM, individual donor
[12] = Aspirin 1000 μM, individual donor

CCCCCCCC(=O)CCc1ccc(O)c(OC)c1 [6-paradol]
Maximal Percent Aggregation Response to 5 μg/ml Collagen ([1]; 6-paradol 1 μM, Mean): 89% | Maximal Percent Aggregation Response to 5 μg/ml Collagen [1, 4]: 81% and 100% and 77% and 97% and 90% | Maximal Percent Aggregation Response to 5 μg/ml Collagen ([1]; 6-paradol 10 μM, Mean): 95% | Maximal Percent Aggregation Response to 5 μg/ml Collagen [1, 5]: 82% and 100% (2×) and 97% and 98% | Maximal Percent Aggregation Response to 5 μg/ml Collagen ([1]; 6-paradol 100 μM, Mean): 85% | Maximal Percent Aggregation Response to 5 μg/ml Collagen [1, 6]: 82% and 100% and 88% and 89% and 64% | inhibition of collagen-mediated platelet aggregation response ([1]; 6-paradol 1000 μM): substantially inhibited | Maximal Percent Aggregation Response to 5 μg/ml Collagen ([1]; 6-paradol 1000 μM, Mean): 41% | Maximal Percent Aggregation Response to 5 μg/ml Collagen [1, 7]: 23% and 60% and 36% and 74% and 10% | inhibition of collagen-mediated platelet aggregation ([1]; 6-paradol concentrations of 100 μM or less): did not significantly inhibit | Maximal Percent Aggregation Response to 1.6 mM Arachidonic Acid ([2]; 6-paradol 1 μM, Mean): 82% | Maximal Percent Aggregation Response to 1.6 mM Arachidonic Acid [2, 4]: 72% and 77% and 96% and 65% and 98% | Maximal Percent Aggregation Response to 1.6 mM Arachidonic Acid ([2]; 6-paradol 10 μM, Mean): 51% | Maximal Percent Aggregation Response to 1.6 mM Arachidonic Acid [2, 5]: 0% (2×) and 99% and 71% and 87% | Maximal Percent Aggregation Response to 1.6 mM Arachidonic Acid ([2]; 6-paradol 100 μM, Mean): 2% | Maximal Percent Aggregation Response to 1.6 mM Arachidonic Acid [2, 6]: 0% (4×) and 9% | Maximal Percent Aggregation Response to 1.6 mM Arachidonic Acid ([2]; 6-paradol 1000 μM, Mean): 1% | Maximal Percent Aggregation Response to 1.6 mM Arachidonic Acid [2, 7]: 0% (4×) and 3% | inhibition of AA-mediated platelet aggregation [2, 8]: Near complete inhibition | inhibition of AA-mediated platelet aggregation [2, 9]: did not significantly inhibit | Maximal Percent Aggregation Response to 5 μM Adenosine Diphosphate ([3]; 6-paradol 1 μM, Mean): 77% | Maximal Percent Aggregation Response to 20 μM Adenosine Diphosphate ([3]; 6-paradol 1 μM, Mean): 83% | Maximal Percent Aggregation Response to 5 μM Adenosine Diphosphate [3, 4]: 83% and 81% and 92% and 50% | Maximal Percent Aggregation Response to 20 μM Adenosine Diphosphate [3, 4]: 70% and 85% and 88% and 74% and 99% | Maximal Percent Aggregation Response to 5 μM Adenosine Diphosphate ([3]; 6-paradol 10 μM, Mean): 74% | Maximal Percent Aggregation Response to 20 μM Adenosine Diphosphate ([3]; 6-paradol 10 μM, Mean): 86% | Maximal Percent Aggregation Response to 5 μM Adenosine Diphosphate [3, 5]: 77% and 78% and 96% and 46% | Maximal Percent Aggregation Response to 20 μM Adenosine Diphosphate [3, 5]: 81% and 82% and 100% and 84% and 85% | Maximal Percent Aggregation Response to 5 μM Adenosine Diphosphate ([3]; 6-paradol 100 μM, Mean): 63% | Maximal Percent Aggregation Response to 20 μM Adenosine Diphosphate ([3]; 6-paradol 100 μM, Mean): 79% | Maximal Percent Aggregation Response to 5 μM Adenosine Diphosphate [3, 6]: 57% and 67% and 81% and 45% | Maximal Percent Aggregation Response to 20 μM Adenosine Diphosphate [3, 6]: 63% and 73% and 95% and 76% and 90% | Maximal Percent Aggregation Response to 5 μM Adenosine Diphosphate ([3]; 6-paradol 1000 μM, Mean): 50% | Maximal Percent Aggregation Response to 20 μM Adenosine Diphosphate ([3]; 6-paradol 1000 μM, Mean): 66% | Maximal Percent Aggregation Response to 5 μM Adenosine Diphosphate [3, 7]: 55% and 53% and 59% and 33% | Maximal Percent Aggregation Response to 20 μM Adenosine Diphosphate [3, 7]: 53% and 67% (3×) and 78% | inhibition of platelet aggregation in the presence of 5 or 20 μM ADP [3]: did not significantly inhibit

CC(=O)Oc1ccccc1C(=O)O [Aspirin, aspirin]
Maximal Percent Aggregation Response to 5 μg/mL Collagen ([1]; Aspirin 1 μM, Mean): 94% | Maximal Percent Aggregation Response to 5 μg/mL Collagen ([1]; Aspirin 1 μM, individual donor): 100% (2×) and 82% and 92% and 97% | Maximal Percent Aggregation Response to 5 μg/mL Collagen ([1]; Aspirin 10 μM, Mean): 91% | Maximal Percent Aggregation Response to 5 μg/mL Collagen [1, 10]: 86% and 100% (2×) and 80% and 87% | Maximal Percent Aggregation Response to 5 μg/mL Collagen ([1]; Aspirin 100 μM, Mean): 65% | Maximal Percent Aggregation Response to 5 μg/mL Collagen [1, 11]: 52% and 92% and 61% and 90% and 28% | Maximal Percent Aggregation Response to 5 μg/mL Collagen ([1]; Aspirin 1000 μM, Mean): 56% | Maximal Percent Aggregation Response to 5 μg/mL Collagen [1, 12]: 39% and 75% and 52% and 83% and 32% | inhibition at 1000 µM ([1]; Homo sapiens, Platelet, read-out: inhibition of collagen-mediated platelet aggregation response relative to DMSO control): ~37% | Maximal Percent Aggregation Response to 1.6 mM Arachidonic Acid ([2]; Aspirin 1 μM, Mean): 69% | Maximal Percent Aggregation Response to 1.6 mM Arachidonic Acid ([2]; Aspirin 1 μM, individual donor): 75% and 0% and 100% and 73% and 95% | Maximal Percent Aggregation Response to 1.6 mM Arachidonic Acid ([2]; Aspirin 10 μM, Mean): 2% | Maximal Percent Aggregation Response to 1.6 mM Arachidonic Acid [2, 10]: 0% (3×) and 1% and 7% | Maximal Percent Aggregation Response to 1.6 mM Arachidonic Acid ([2]; Aspirin 100 μM, Mean): 1% | Maximal Percent Aggregation Response to 1.6 mM Arachidonic Acid [2, 11]: 0% (4×) and 5% | Maximal Percent Aggregation Response to 1.6 mM Arachidonic Acid ([2]; Aspirin 1000 μM, Mean): 2% | Maximal Percent Aggregation Response to 1.6 mM Arachidonic Acid [2, 12]: 0% (3×) and 8% | inhibition of AA-mediated platelet aggregation [2, 8]: near complete inhibition | inhibition of AA-mediated platelet aggregation [2, 9]: did not significantly inhibit | Maximal Percent Aggregation Response to 5 μM Adenosine Diphosphate ([3]; Aspirin 1 μM, Mean): 82% | Maximal Percent Aggregation Response to 20 μM Adenosine Diphosphate ([3]; Aspirin 1 μM, Mean): 90% | Maximal Percent Aggregation Response to 5 μM Adenosine Diphosphate ([3]; Aspirin 1 μM, individual donor): 78% and 83% and 92% and 73% | Maximal Percent Aggregation Response to 20 μM Adenosine Diphosphate ([3]; Aspirin 1 μM, individual donor): 91% and 87% and 100% and 81% and 90% | Maximal Percent Aggregation Response to 5 μM Adenosine Diphosphate ([3]; Aspirin 10 μM, Mean): 70% | Maximal Percent Aggregation Response to 20 μM Adenosine Diphosphate ([3]; Aspirin 10 μM, Mean): 80% | Maximal Percent Aggregation Response to 5 μM Adenosine Diphosphate [3, 10]: 82% and 63% and 84% and 52% | Maximal Percent Aggregation Response to 20 μM Adenosine Diphosphate [3, 10]: 78% (2×) and 92% and 68% and 84% | Maximal Percent Aggregation Response to 5 μM Adenosine Diphosphate ([3]; Aspirin 100 μM, Mean): 71% | Maximal Percent Aggregation Response to 20 μM Adenosine Diphosphate ([3]; Aspirin 100 μM, Mean): 86% | Maximal Percent Aggregation Response to 5 μM Adenosine Diphosphate [3, 11]: 63% and 94% and 75% and 53% | Maximal Percent Aggregation Response to 20 μM Adenosine Diphosphate [3, 11]: 63% and 87% (2×) and 95% and 97% | Maximal Percent Aggregation Response to 5 μM Adenosine Diphosphate ([3]; Aspirin 1000 μM, Mean): 74% | Maximal Percent Aggregation Response to 20 μM Adenosine Diphosphate ([3]; Aspirin 1000 μM, Mean): 80% | Maximal Percent Aggregation Response to 5 μM Adenosine Diphosphate [3, 12]: 71% and 90% and 86% and 50% | Maximal Percent Aggregation Response to 20 μM Adenosine Diphosphate [3, 12]: 72% and 84% and 80% and 78% and 88% | inhibition of platelet aggregation in the presence of 5 or 20 μM ADP [3]: did not significantly inhibit
